# Measurements as given in patent US4965273A, “Certain 1-tertiary-butyl-naphthyridone carboxylic acid derivatives anti-bacterial agents” (priority 1988, dated 1990).
# Columns and labels:
# [1] = from Tables 2, 3 and 4
# [2] = system: Enterobacter cloacae; assay: Minimum inhibitory concentration (MIC), microtitration dilution method of Heifetz et al.; assay type: cell-based; set-up: unit not given here; settings: Table 2
# [3] = system: Klebsiella oxytoca; assay: as above; assay type: cell-based; settings: Table 2
# Protocol: (§1) The compounds of this invention display antibacterial activity when tested by the microtitration dilution method reported by Heifetz et al., Antimicr. Agents & Chemoth., 6. 124 (1974). Minimum inhibitory concentrations (MICs, in μg/ml) for but a few representative compounds according to this invention were determined by the above-mentioned method.
# [4] = system: Streptococcus faecalis; assay: as above; assay type: cell-based
# Protocol: as §1
# [5] = system: Escherichia coli; assay: as above; assay type: cell-based; settings: Table 2
# Protocol: as §1
# [6] = system: Staphylococcus aureus; assay: as above; assay type: cell-based; settings: Table 2
# Protocol: as §1
# [7] = system: Pseudomonas aeruginosa; assay: as above; assay type: cell-based; settings: Table 2
# Protocol: as §1
# [8] = system: Streptococcus faecium; assay: as above; assay type: cell-based; settings: Table 2
# Protocol: as §1
compound,measurement,setting,value
"CC(C)(C)n1cc(C(=O)O)c(=O)c2cc(F)c(N3C[C@H]4C[C@@H]3CN4)nc21 [Example 30, 7-(1R,4R-2,5-diazabicyclo[2.2.1]heptan-2-yl)-1-(1,1-dimethylethyl)-1,4-dihydro-6-fluoro-4-oxo-1,8-naphthyridine-3-carboxylic acid]","combination of anti-bacterial, toxicity, and water-solubility properties",[1],highly advantageous combination of the above mentioned properties
"CC(C)(C)n1cc(C(=O)O)c(=O)c2cc(F)c(N3C[C@@H]4CC[C@H]3CN4)nc21 [Example 23, 7-(1S,4S-2,5-diazabicyclo[2.2.2]octan-2-yl)-1-(1,1-dimethylethyl)-1,4-dihydro-6-fluoro-4-oxo-1,8-naphthyridine-3-carboxylic acid]",MIC E. clo.,[2],0.06
same,MIC K. oxyto.,[3],0.5 µg/mL
same,MIC S. faecal.,"[4]; Table 2, Streptococcus faecalis",0.5 µg/mL
same,MIC E. coli,[5],0.13 µg/mL
same,MIC S. aur.,[6],0.03 µg/mL
same,MIC P. aer.,[7],1.0 µg/mL
same,MIC S. faeci.,[8],2.0 µg/mL
"O=C(O)c1cn(C2CC2)c2cc(N3CCNCC3)c(F)cc2c1=O [Cip., 1-cyclopropyl-6-fluoro-1,4-dihydro-7-(1-piperazinyl)-4-oxo-quinoline-3-carboxylic acid, reference compound]",MIC,"[4]; Enterococcus faecalis, read-out: MIC S. faecal.",0.5 µg/mL
